Test results: ChEMBL document CHEMBL1128877, “Isosinococuline, a novel antitumor morphinane alkaloid from Cocculus trilobus” (1995)

System: Mus musculus
Test: In vivo antitumor activity against P-388 leukemia in mice was determined at 25 mg/kg/day level
Type: functional

COC1=C2C(N)Cc3cc(OC)c(O)cc3C2C[C@H](O)[C@@H]1O (stereo partly specified)
T/C: 146%
